Data on twelve compounds can be found in patent US20230265116A1, “DEGRADATION OF (EGFR) BY CONJUGATION OF EGFR INHIBITORS WITH E3 LIGASE LIGAND AND METHODS OF USE” (BEIGENE, LTD., priority 2020, published 2023).

Like-named read-outs stand apart in the source and are kept apart here.

In assay [1] the target is T1, EGFR L858R/T790M/C797S (BaF3-LTC cells) (Homo sapiens, UniProt P00533, C797S/L858R/T790M).
T1 construct: expressed in transfected cells; host or cells: BaF3
Description: EGFR degradation HTRF assay, BaF3-LTC cells. The format is cell-based. Summed up:
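EGFR remaining after a 16 h, 37 °C exposure (8 doses, 5-fold steps from 10 uM final, 0.2% DMSO) was quantified by HTRF antibodies in cell lysate. Percent inhibition relative to DMSO control was fitted by four-parameter logistic to give DC50; Dmax denotes maximal degradation.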
On the technique in general: Time-resolved FRET reads energy transfer from a long-lived donor to a nearby acceptor.

In assay [2] the test system is EGFR Del19/T790M/C797S (H1975-clone #28). Description: EGFR degradation HTRF assay, H1975-clone #28 DTC cells. The format is cell-based. An outline of the steps:
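Read-out is an HTRF EGFR signal (337 nm excitation, 665/620 nm) from lysates of mutant-EGFR H1975 clones in which only the exogenous EGFR survives knockout. Treatment ran 16h at 37° C. from 10 uM final downward in 5-fold steps. DC50 comes from a logistic fit and Dmax is the maximal degradation.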

The mark [3] stands for this setting: H1975 # 28 DTC cells; maximum percentage of inhibition (degradation).
Where [4] appears, read: read-out: DC50(nM) H1975 # 28 DTC; H1975 # 28 DTC cells; EGFR degradation, IC50 (DC50) from curve fit.
The mark [5] stands for this setting: BaF3-LTC cells; EGFR degradation, IC50 (DC50) from curve fit; read-out: DC50(nM) BaF3-LTC.
Where [6] appears, read: BaF3-LTC cells; maximum percentage of inhibition (degradation); read-out: Dmax (%) BaF3-LTC.
[7] abbreviates: H1975 # 28 DTC cells; EGFR degradation, IC50 (DC50) from curve fit; read-out: DC50(nM) H1975 # 28 DTC.

T1 sequence (P00533 25-1210 T790M/C797S/L858R): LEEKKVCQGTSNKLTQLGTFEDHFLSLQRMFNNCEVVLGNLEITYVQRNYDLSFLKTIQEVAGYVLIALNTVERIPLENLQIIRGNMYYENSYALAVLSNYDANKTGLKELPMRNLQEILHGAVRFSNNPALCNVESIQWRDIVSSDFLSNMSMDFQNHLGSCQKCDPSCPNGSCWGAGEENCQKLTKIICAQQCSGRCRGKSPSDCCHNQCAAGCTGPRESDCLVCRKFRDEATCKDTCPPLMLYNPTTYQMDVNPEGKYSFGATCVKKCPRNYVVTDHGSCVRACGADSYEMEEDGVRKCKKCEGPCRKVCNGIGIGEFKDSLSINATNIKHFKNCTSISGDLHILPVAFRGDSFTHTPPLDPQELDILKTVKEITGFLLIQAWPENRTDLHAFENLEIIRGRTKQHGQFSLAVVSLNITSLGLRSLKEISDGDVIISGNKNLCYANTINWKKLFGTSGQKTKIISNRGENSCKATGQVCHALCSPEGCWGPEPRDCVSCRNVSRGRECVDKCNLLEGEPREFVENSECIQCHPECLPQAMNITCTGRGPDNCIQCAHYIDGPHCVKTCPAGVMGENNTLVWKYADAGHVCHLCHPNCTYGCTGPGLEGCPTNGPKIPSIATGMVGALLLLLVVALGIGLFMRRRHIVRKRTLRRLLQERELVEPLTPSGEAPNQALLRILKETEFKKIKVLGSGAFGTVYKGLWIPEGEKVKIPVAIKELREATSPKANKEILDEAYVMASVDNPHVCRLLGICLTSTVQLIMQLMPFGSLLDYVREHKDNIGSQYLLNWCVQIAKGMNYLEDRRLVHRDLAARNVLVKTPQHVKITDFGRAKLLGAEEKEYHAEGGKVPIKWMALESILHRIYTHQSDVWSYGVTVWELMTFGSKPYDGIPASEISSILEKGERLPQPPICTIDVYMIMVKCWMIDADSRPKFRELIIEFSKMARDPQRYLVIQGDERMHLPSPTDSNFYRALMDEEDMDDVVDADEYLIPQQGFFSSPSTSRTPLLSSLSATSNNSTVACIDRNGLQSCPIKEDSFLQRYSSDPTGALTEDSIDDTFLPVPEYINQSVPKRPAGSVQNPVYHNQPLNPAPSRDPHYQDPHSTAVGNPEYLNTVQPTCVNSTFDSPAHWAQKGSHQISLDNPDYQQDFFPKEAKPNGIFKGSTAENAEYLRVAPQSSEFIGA

On to `CCc1cnc2c(P(C)(C)=O)c(Nc3nc(Nc4cc(CC)c(N5CCC(N6CCN(CCc7ccc8c(c7)oc(=O)n8C7CCC(=O)NC7=O)CC6)CC5)cc4OC)ncc3Br)ccc2n1` (stereo not shown) [Example 548, 3-(6-(2-(4-(1-(4-((5-bromo-4-((5-(dimethylphosphoryl)-2-ethylquinoxalin-6-yl)amino)pyrimidin-2-yl)amino)-2-ethyl-5-methoxyphenyl)piperidin-4-yl)piperazin-1-yl)ethyl)-2-oxobenzo[d]oxazol-3(2H)-yl)piperidine-2,6-dione], for which the DC50 amounted to 3.63 nM in assay [1] (read-out: DC50(nM) BaF3-LTC; BaF3-LTC cells; EGFR degradation, IC50 (DC50) from curve fit) and 0.696 nM in assay [2] (setting [4]). In addition, the Dmax in assay [1] (read-out: Dmax (%) BaF3-LTC, BaF3-LTC cells; maximum percentage of inhibition (degradation)) turned out to be 91.8%. Moreover, the “Dmax (%) H1975 # 28 DTC” value in assay [2] (setting [3]) stood at 74.38%.
Turning to `CCc1ccc2c(P(C)(C)=O)c(Nc3nc(Nc4cc(C5CC5)c(N5CCC(N6CCN(CCc7cc(F)c([C@H]8CCC(=O)NC8=O)c(F)c7)CC6)CC5)cc4OC)ncc3Br)ccc2n1` [Example 550, (R)-3-(4-(2-(4-(1-(4-((5-bromo-4-((5-(dimethylphosphoryl)-2-ethylquinolin-6-yl)amino)pyrimidin-2-yl)amino)-2-cyclopropyl-5-methoxyphenyl)piperidin-4-yl)piperazin-1-yl)ethyl)-2,6-difluorophenyl)piperidine-2,6-dione], the DC50 in assay [1] (setting [5]) was determined as 8.12 nM; in assay [2] (setting [7]), 0.707 nM. For the same compound, in assay [1] (setting [6]), the Dmax was 85.9%. Besides, the “Dmax (%) H1975 # 28 DTC” value in assay [2] (setting [3]) is listed as 87.71%.
In the case of `CCOc1cc(N2CCC(N3CCN(CCc4ccc5c(c4)oc(=O)n5C4CCC(=O)NC4=O)CC3)CC2)c(C)cc1Nc1ncc(Br)c(Nc2ccc3nc(CC)ccc3c2P(C)(C)=O)n1` (stereo not shown) [Example 552, 3-(6-(2-(4-(1-(4-((5-bromo-4-((5-(dimethylphosphoryl)-2-ethylquinolin-6-yl)amino)pyrimidin-2-yl)amino)-5-ethoxy-2-methylphenyl)piperidin-4-yl)piperazin-1-yl)ethyl)-2-oxobenzo[d]oxazol-3 (2H)-yl)piperidine-2,6-dione], the half-maximal degradation concentration (DC50) in assay [1] (setting [5]) is 4.35 nM; in assay [2] (setting [7]), 0.367 nM. Moreover, the Dmax in assay [1] (setting [6]) was 85.7%. For the same compound, the “Dmax (%) H1975 # 28 DTC” value in assay [2] (setting [3]) was 71.85%.
Taken in the same sequence, the figures for `CCOc1cc(N2CCC(N3CCN(CCc4cc5oc(=O)n(C6CCC(=O)NC6=O)c5cc4C)CC3)CC2)c(CC)cc1Nc1ncc(Br)c(Nc2ccc3c(=O)n(CC)ncc3c2P(C)(C)=O)n1` (stereo not shown) [Example 554, 3-(6-(2-(4-(1-(4-((5-bromo-4-((5-(dimethylphosphoryl)-2-ethyl-1-oxo-1,2-dihydrophthalazin-6-yl)amino)pyrimidin-2-yl)amino)-5-ethoxy-2-ethylphenyl)piperidin-4-yl)piperazin-1-yl)ethyl)-5-methyl-2-oxobenzo[d]oxazol-3(2H)-yl)piperidine-2,6-dione] were 2.49 nM, 0.662 nM, 91.9% and 67.4%.
As to `CCOc1cc(N2CCC(N3CCN(CCc4ccc5c(oc(=O)n5C5CCC(=O)NC5=O)c4F)CC3)CC2)c(CC)cc1Nc1ncc(Br)c(Nc2ccc3nc(CC)ccc3c2P(C)(C)=O)n1` (stereo not shown) [Example 555, 3-(6-(2-(4-(1-(4-((5-bromo-4-((5-(dimethylphosphoryl)-2-ethylquinolin-6-yl)amino)pyrimidin-2-yl)amino)-5-ethoxy-2-ethylphenyl)piperidin-4-yl)piperazin-1-yl)ethyl)-7-fluoro-2-oxobenzo[d]oxazol-3(2H)-yl)piperidine-2,6-dione], the DC50 in assay [1] (setting [5]) is 7.36 nM; in assay [2] (setting [7]), 1.89 nM. Besides, in assay [1] (setting [6]), the Dmax is 94.5%. Moreover, the “Dmax (%) H1975 # 28 DTC” value in assay [2] (setting [3]) was 77.45%.
Taken in the same sequence, the figures for `CCOc1cc(N2CCC(N3CCN(CCC4CCN(c5cc(F)cc6c5oc(=O)n6C5CCC(=O)NC5=O)CC4)CC3)CC2)c(CC)cc1Nc1ncc(Br)c(Nc2ccc3nc(CC)ccc3c2P(C)(C)=O)n1` (stereo not shown) [Example 556, 3-(7-(4-(2-(4-(1-(4-((5-bromo-4-((5-(dimethylphosphoryl)-2-ethylquinolin-6-yl)amino)pyrimidin-2-yl)amino)-5-ethoxy-2-ethylphenyl)piperidin-4-yl)piperazin-1-yl)ethyl)piperidin-1-yl)-5-fluoro-2-oxobenzo[d]oxazol-3(2H)-yl)piperidine-2,6-dione] were 14.8 nM, 4.03 nM, 92.2% and 98.64%.
The corresponding values for `CCc1cc(Nc2ncc(Br)c(Nc3ccc4nc(C)ccc4c3P(C)(C)=O)n2)c(OC2CC2)cc1N1CCC(N2CCN(CCc3ccc4c(c3)oc(=O)n4C3CCC(=O)NC3=O)CC2)CC1` (stereo not shown) [Example 557, 3-(6-(2-(4-(1-(4-((5-bromo-4-((5-(dimethylphosphoryl)-2-methylquinolin-6-yl)amino)pyrimidin-2-yl)amino)-5-cyclopropoxy-2-ethylphenyl)piperidin-4-yl)piperazin-1-yl)ethyl)-2-oxobenzo[d]oxazol-3(2H)-yl)piperidine-2,6-dione] are 6.8 nM, 0.773 nM, 89.1% and 92.3%.
Turning to `CCOc1cc(N2CCC(N3CCN(CCc4c(F)ccc5c4n(CC)c(=O)n5C4CCC(=O)NC4=O)CC3)CC2)c(CC)cc1Nc1ncc(Br)c(Nc2ccc3nc(CC)ccc3c2P(C)(C)=O)n1` (stereo not shown) [Example 558, 3-(4-(2-(4-(1-(4-((5-bromo-4-((5-(dimethylphosphoryl)-2-ethylquinolin-6-yl)amino)pyrimidin-2-yl)amino)-5-ethoxy-2-ethylphenyl)piperidin-4-yl)piperazin-1-yl)ethyl)-3-ethyl-5-fluoro-2-oxo-2,3-dihydro-1H-benzo[d]imidazol-1-yl)piperidine-2,6-dione], the 50% degradation concentration (DC50) in assay [1] (setting [5]) turned out to be 13.1 nM; in assay [2] (setting [7]) it was 2.59 nM. Also, the “Dmax (%) H1975 # 28 DTC” value in assay [2] (setting [3]) worked out at 85.18%.
Consider `CCOc1cc(N2CCC(N3CCN(C[C@H]4CCN(c5cccc6c5oc(=O)n6C5CCC(=O)NC5=O)C4)CC3)CC2)c(CC)cc1Nc1ncc(Br)c(Nc2ccc3c(=O)n(CC)ncc3c2P(C)(C)=O)n1` (stereo partly drawn) [Example 560, 3-(7-((R)-3-((4-(1-(4-((5-bromo-4-((5-(dimethylphosphoryl)-2-ethyl-1-oxo-1,2-dihydrophthalazin-6-yl)amino)pyrimidin-2-yl)amino)-5-ethoxy-2-ethylphenyl)piperidin-4-yl)piperazin-1-yl)methyl)pyrrolidin-1-yl)-2-oxobenzo[d]oxazol-3(2H)-yl)piperidine-2,6-dione], for which the 50% degradation concentration (DC50) in assay [1] (setting [5]) was 14.1 nM; in assay [2] (setting [7]), 1.36 nM. In addition, the Dmax in assay [1] (setting [6]) worked out at 92.3%. For the same compound, in assay [2] (setting [3]), the “Dmax (%) H1975 # 28 DTC” value was 80.68%.
Taken in the same sequence, the figures for `CCOc1cc(N2CCC(N3CCN(C[C@H]4CCN(c5cccc6c5oc(=O)n6C5CCC(=O)NC5=O)C4)CC3)CC2)c(CC)cc1Nc1ncc(Br)c(Nc2ccc3nc(CC)ccc3c2P(C)(C)=O)n1` (stereo partly drawn) [Example 561, 3-(7-((R)-3-((4-(1-(4-((5-bromo-4-((5-(dimethylphosphoryl)-2-ethylquinolin-6-yl)amino)pyrimidin-2-yl)amino)-5-ethoxy-2-ethylphenyl)piperidin-4-yl)piperazin-1-yl)methyl)pyrrolidin-1-yl)-2-oxobenzo[d]oxazol-3(2H)-yl)piperidine-2,6-dione] were 10.3 nM, 1.68 nM, 89.5% and 77.5%.
Consider `CCOc1cc(N2CCC(N3CCN(CC4CN(c5cccc6c5oc(=O)n6C5CCC(=O)NC5=O)C4)CC3)CC2)c(CC)cc1Nc1ncc(Br)c(Nc2cc(F)c3nc(CC)ccc3c2P(C)(C)=O)n1` (stereo not shown) [Example 562, 3-(7-(3-((4-(1-(4-((5-bromo-4-((5-(dimethylphosphoryl)-2-ethyl-8-fluoroquinolin-6-yl)amino)pyrimidin-2-yl)amino)-5-ethoxy-2-ethylphenyl)piperidin-4-yl)piperazin-1-yl)methyl)azetidin-1-yl)-2-oxobenzo[d]oxazol-3(2H)-yl)piperidine-2,6-dione], for which the DC50 in assay [1] (setting [5]) is 7.47 nM; in assay [2] (setting [7]) it was 1.54 nM. The Dmax in assay [1] (setting [6]) was found to be 90.2%. Further, the “Dmax (%) H1975 # 28 DTC” value in assay [2] (setting [3]) stood at 77.73%.
As for `CCOc1cc(N2CCC(N3CCN(CCc4cccc5c4oc(=O)n5C4CCC(=O)NC4=O)CC3)CC2)c(CC)cc1Nc1ncc(Br)c(Nc2ccc3nc(CC)ncc3c2P(C)(C)=O)n1` (stereo not shown) [Example 563, 3-(7-(2-(4-(1-(4-((5-bromo-4-((5-(dimethylphosphoryl)-2-ethylquinazolin-6-yl)amino)pyrimidin-2-yl)amino)-5-ethoxy-2-ethylphenyl)piperidin-4-yl)piperazin-1-yl)ethyl)-2-oxobenzo[d]oxazol-3(2H)-yl)piperidine-2,6-dione], the 50% degradation concentration (DC50) in assay [1] (setting [5]) turned out to be 7.69 nM; in assay [2] (setting [4]) it was 0.732 nM. For the same compound, in assay [2] (setting [3]), the “Dmax (%) H1975 # 28 DTC” value was found to be 81.88%.

As a reminder, the DC50 is the concentration giving 50% degradation. The term Dmax denotes the largest share of the target that was removed.
